Assay results published in patent US10214544B2, “Imidazopyridazine and imidazothiadiazole compounds” (Universite de Montreal, priority 2015, dated 2019).

Molecular target: PAR4 (Homo sapiens (Human), UniProt Q96RI0)
Experiment: FLIPR assay in PAR4-expressing HEK293 cells (PAR4 antagonist activity)
Format: cell-based
Settings: inhibition of H-Ala-Phe(4-F)-Pro-Gly-Trp-Leu-Val-Lys-Asn-Gly-NH2-induced intracellular calcium mobilization
Source text: The FLIPR assay is an exemplary in vitro assay for measuring the activity of the PAR4 antagonists of the present invention. In this assay, intracellular calcium mobilization is induced in PAR4 expressing cells by a PAR4 agonist and calcium mobilization is monitored. See, e.g., Example A.
HEK293 cells stably expressing PAR4 were generated by a standard method of transfection of human PAR4 (F2R23) cDNA expression vector and selected based on PAR4 protein expression or mRNA expression. […] These cells also express endogenous PAR1 and can elicit calcium signal upon stimulation with PAR1 agonist peptide. Therefore, the same cells were also used to determine selectivity against PAR1 and agonist activity for both receptors. Cells from HEK293 PAR4 Clone 1.2A (BMS Arctic ID 383940) were propagated and used for calcium mobilization studies.
FLIPR-based calcium mobilization assay in HEK293 cells was used to measure PAR4 antagonism, agonism, and selectivity against PAR1. The activity of the PAR4 antagonists of the present invention were tested in PAR4 expressing cells by monitoring H-Ala-Phe(4-F)-[…]NH2-induced intracellular calcium mobilization. Counter screens for agonist activity and PAR1 antagonist activity were also performed. Briefly, PAR1/PAR4-expressing HEK293 cells were grown in DMEM (Life Technology, Grand Island, N.Y.) containing 10% heat-inactivated FBS, 1% Penicillin-Streptomycin, 10 μg/mL blasticidin, and 100 μg/mL Zeocin at 37° C. with 5% CO2. Cells were plated overnight prior to the experiment in a black 384-well Purecoat Amine clear bottom plate (Becton Dickinson Biosciences, San Jose, Calif.) at 10,000 cells/well in 30 μL growth medium and incubated in a humidified chamber at 37° C. with 5% CO2 overnight. Prior to compound addition, the cell medium was replaced with […] of 1× calcium and magnesium-containing Hank's Balanced Saline Solution (HBSS) (with 20 mM HEPES) and 1:1000 diluted fluorescent calcium indicator (Codex Biosolutions, Gaithersburg, Md.). After a 30 minute incubation period at 37° C. and a further 30 minute incubation and equilibration period at room temperature, 20 μL test compound (diluted in 1× HBSS buffer) was added at various concentrations at 0.17% dimethyl sulfoxide (DMSO) final concentration. Changes in fluorescence intensity were measured using a Functional Drug Screening System (FDSS, Hamamatsu, Japan) to determine agonist activities. The cells were then incubated for 30 minutes at room temperature followed by addition of 20 μL of agonist peptide for antagonist activity measurement. […] Compound potency was derived from 11-point concentration-response curves.
The following Table sets out results obtained employing various compounds of the invention tested in the FLIPR assay. As indicated above, the FLIPR assay, an in vitro assay, measures the PAR4 antagonist activity of compounds tested as described in Example A.

Sequence of PAR4 (Q96RI0 18-385): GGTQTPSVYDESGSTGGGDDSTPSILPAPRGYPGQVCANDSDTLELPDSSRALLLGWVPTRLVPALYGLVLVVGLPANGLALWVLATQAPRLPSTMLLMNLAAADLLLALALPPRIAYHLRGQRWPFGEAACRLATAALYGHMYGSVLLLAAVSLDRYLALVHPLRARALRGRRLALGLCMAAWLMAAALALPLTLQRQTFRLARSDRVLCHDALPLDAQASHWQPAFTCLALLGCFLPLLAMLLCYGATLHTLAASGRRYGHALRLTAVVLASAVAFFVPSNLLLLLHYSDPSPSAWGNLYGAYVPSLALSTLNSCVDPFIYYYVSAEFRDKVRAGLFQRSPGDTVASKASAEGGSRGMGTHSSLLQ

Row | SMILES | EC50
1 | COc1cc(OCc2cccc(NC(=O)c3cc(C(F)(F)F)ccc3F)c2)c2cc(-c3cn4nc(OC)sc4n3)oc2c1 [Example 140] | 1.5 nM
2 | COc1cc(OCc2cccc(NC(=O)c3ccc(OC(F)F)cc3)c2)c2cc(-c3cn4nc(OC)sc4n3)oc2c1 [Example 164] | 2 nM
3 | COc1cc(OCc2cccc(NC(=O)c3cccc(C#N)c3)c2)c2cc(-c3cn4nc(OC)sc4n3)oc2c1 [Example 16] | 1.4 nM
4 | COc1cc(OCc2cccc3c2CCN3C(=O)c2ccccc2C)c2cc(-c3cn4nc(OC)sc4n3)oc2c1 [Example 122] | 5 nM
5 | COc1cc(OCc2cccc(NC(=O)c3cccc(-c4ccccc4)c3)c2)c2cc(-c3cn4nc(OC)sc4n3)oc2c1 [Example 158] | 12 nM
6 | COc1cc(OCc2cccc(NC(=O)c3ccc(Cl)cc3)c2)c2cc(-c3cn4nc(OC)sc4n3)oc2c1 [Example 5, 4-Chloro-N-(3-(((6-methoxy-2-(2-methoxyimidazo[2,1-b][1,3,4]thiadiazol-6-yl)benzofuran-4-yl)oxy)methyl)phenyl)benzamide] | 1.3 nM
7 | COc1cc(OCc2cccc3c2CCN3C(=O)c2sc(C)nc2C)c2cc(-c3cn4nc(OC)sc4n3)oc2c1 [Example 129] | 4.2 nM
8 | COc1cc(OCc2ccc3c(c2)N(C(=O)c2ccccc2OC)CC3)c2cc(-c3cn4nc(OC)sc4n3)oc2c1 [Example 103] | 4.5 nM
9 | COc1cc(OCc2cccc(NC(=O)c3c(Cl)cccc3Cl)c2)c2cc(-c3cn4nc(OC)sc4n3)oc2c1 [Example 12] | 1.5 nM
10 | COc1cc(OCc2ccc3c(c2)N(C(=O)c2csc(-c4ccccc4)n2)CC3)c2cc(-c3cn4nc(OC)sc4n3)oc2c1 [Example 112] | 0.55 nM
11 | COc1cc(OCc2cccc(NC(=O)Cc3cc(C)no3)c2)c2cc(-c3cn4nc(OC)sc4n3)oc2c1 [Example 47] | 6.9 nM
12 | COc1cc(OCc2cccc(NC(=O)c3cccc(Cl)c3F)c2)c2cc(-c3cn4nc(OC)sc4n3)oc2c1 [Example 151] | 3.4 nM
13 | COc1cc(OCc2cccc(NC(=O)c3cc(OCc4ccccc4)cc(C(F)(F)F)c3)c2)c2cc(-c3cn4nc(OC)sc4n3)oc2c1 [Example 62] | 57 nM
14 | COc1cc(OCc2cccc(NC(=O)c3cccnc3)c2)c2cc(-c3cn4nc(OC)sc4n3)oc2c1 [Example 148] | 6.8 nM
15 | COc1cc(OCc2cccc(NC(=O)c3cncnc3)c2)c2cc(-c3cn4nc(OC)sc4n3)oc2c1 [Example 57] | 1.8 nM
16 | COc1cc(OCc2cccc(NC(=O)c3cccnc3Cl)c2)c2cc(-c3cn4nc(OC)sc4n3)oc2c1 [Example 58] | 0.74 nM
17 | COc1cc(OCc2cccc3c2CCN3C(=O)c2ccnnc2)c2cc(-c3cn4nc(OC)sc4n3)oc2c1 [Example 128] | > 3300 nM
18 | COc1cc(OCc2cccc(NC(=O)c3ccc(C(F)(F)F)cc3)c2)c2cc(-c3cn4nc(OC)sc4n3)oc2c1 [Example 153] | 0.99 nM
19 | COc1cc(OCc2cccc(N(C)C(=O)c3ccc(OC)nc3)c2)c2cc(-c3cn4nc(OC)sc4n3)oc2c1 [Example 90] | 1.1 nM
20 | COc1cc(OCc2cccc(NC(=O)C3CCOCC3)c2)c2cc(-c3cn4nc(OC)sc4n3)oc2c1 [Example 165] | 4.6 nM
21 | COc1cc(OCc2cccc(NC(=O)c3c(C)noc3-c3ccccc3)c2)c2cc(-c3cn4nc(OC)sc4n3)oc2c1 [Example 59] | 3.5 nM
22 | COc1cc(OCc2cccc3c2CCN3C(=O)c2ccccc2OC)c2cc(-c3cn4nc(OC)sc4n3)oc2c1 [Example 124] | 190 nM
23 | COc1cc(OCc2cccc(NC(=O)c3ccc(N(C)C)cc3)c2)c2cc(-c3cn4nc(OC)sc4n3)oc2c1 [Example 43] | 1.6 nM
24 | COc1cc(OCc2cccc(NC(=O)c3ccccc3F)c2)c2cc(-c3cn4nc(OC)sc4n3)oc2c1 [Example 26] | 0.75 nM
25 | COc1cc(OCc2cccc(NC(=O)Cc3ccccc3)c2)c2cc(-c3cn4nc(OC)sc4n3)oc2c1 [Example 135] | 5 nM
26 | COc1cc(OCc2cccc(NC(=O)c3cc(C(F)(F)F)ccc3C(F)(F)F)c2)c2cc(-c3cn4nc(OC)sc4n3)oc2c1 [Example 9] | 2 nM

Row | SMILES | EC50
27 | COc1cc(OCc2cccc(NC(=O)c3ccccc3OC(C)=O)c2)c2cc(-c3cn4nc(OC)sc4n3)oc2c1 [Example 8] | 1.6 nM
28 | COc1cc(OCc2cccc3c2CCN3C(=O)c2csc(C(F)(F)F)n2)c2cc(-c3cn4nc(OC)sc4n3)oc2c1 [Example 118] | 16 nM
29 | COc1cc(OCc2cccc3c2CCN3C(=O)c2csc(-c3ccccc3)n2)c2cc(-c3cn4nc(OC)sc4n3)oc2c1 [Example 119] | 1700 nM
30 | COc1cc(OCc2cccc3c2CCN3C(=O)c2cc(OC(F)F)cc(C(F)(F)F)c2)c2cc(-c3cn4nc(OC)sc4n3)oc2c1 [Example 130] | 5.2 nM
31 | COc1cc(OCc2cccc(NC(=O)COCc3ccccc3)c2)c2cc(-c3cn4nc(OC)sc4n3)oc2c1 [Example 17] | 0.55 nM
32 | COc1cc(OCc2cccc3c2CCN3)c2cc(-c3cn4nc(OC)sc4n3)oc2c1 [Example 114, 6-(4-(Indolin-4-ylmethoxy)-6-methoxybenzofuran-2-yl)-2-methoxyimidazo[2,1-b][1,3,4]thiadiazole] | 37 nM
33 | COc1cc(OCc2cccc(NC(=O)c3cccc(OC(F)(F)F)c3)c2)c2cc(-c3cn4nc(OC)sc4n3)oc2c1 [Example 6, N-(3-(((6-methoxy-2-(2-methoxyimidazo[2,1-b][1,3,4]thiadiazol-6-yl)benzofuran-4-yl)oxy)methyl)phenyl)-3-(trifluoromethoxy)benzamide] | 1.4 nM
34 | COc1cc(OCc2cccc(NC(=O)c3ccno3)c2)c2cc(-c3cn4nc(OC)sc4n3)oc2c1 [Example 155] | 2.3 nM
35 | COc1cc(OCc2cccc(NC(=O)c3cccn3C)c2)c2cc(-c3cn4nc(OC)sc4n3)oc2c1 [Example 132] | 3.8 nM
36 | COc1cc(OCc2cccc(N(C)C(=O)c3ccccc3)c2)c2cc(-c3cn4nc(OC)sc4n3)oc2c1 [Example 83, N-(3-(((6-methoxy-2-(2-methoxyimidazo[2,1-b][1,3,4]thiadiazol-6-yl)benzofuran-4-yl)oxy)methyl)phenyl)-N-methylbenzamide] | 4.1 nM
37 | COc1cccc(C(=O)Nc2cccc(COc3cc(OC)cc4oc(-c5cn6nc(OC)sc6n5)cc34)c2)c1 [Example 160] | 36 nM
38 | COc1cc(OCc2cccc(NC(=O)c3cccc(C(F)(F)F)c3)c2)c2cc(-c3cn4nc(OC)sc4n3)oc2c1 [Example 149] | 2 nM
39 | COc1cc(OCc2cccc(NC(=O)c3ccnc(F)c3)c2)c2cc(-c3cn4nc(OC)sc4n3)oc2c1 [Example 48] | 2.7 nM
40 | COc1cc(OCc2cccc(NC(=O)c3cc(F)ccc3C)c2)c2cc(-c3cn4nc(OC)sc4n3)oc2c1 [Example 75] | 1.7 nM
41 | COc1cc(OCc2cccc(NC(=O)c3c(OC)cccc3OC)c2)c2cc(-c3cn4nc(OC)sc4n3)oc2c1 [Example 162] | 11 nM
42 | COc1cc(OCc2cccc(NC(=O)c3ccc(F)c(F)c3)c2)c2cc(-c3cn4nc(OC)sc4n3)oc2c1 [Example 166] | 2.3 nM
43 | COc1cc(OCc2cccc(N)c2)c2cc(-c3cn4nc(OC)sc4n3)oc2c1 [Example 4, 3-(((6-Methoxy-2-(2-methoxyimidazo[2,1-b][1,3,4]thiadiazol-6-yl)benzofuran-4-yl)oxy)methyl)aniline] | 17 nM
44 | COc1cc(OCc2cccc(NC(=O)c3sc(C)nc3C)c2)c2cc(-c3cn4nc(OC)sc4n3)oc2c1 [Example 50] | 7.4 nM
45 | COc1cc(OCc2cccc(NC(=O)C3CCCCC3)c2)c2cc(-c3cn4nc(OC)sc4n3)oc2c1 [Example 150] | 2.3 nM
46 | COc1cc(OCc2cccc(NC(=O)c3cccc(C)c3)c2)c2cc(-c3cn4nc(OC)sc4n3)oc2c1 [Example 20] | 1.4 nM
47 | COc1cc(OCc2ccc3c(c2)N(C(=O)c2csc(C(F)(F)F)n2)CC3)c2cc(-c3cn4nc(OC)sc4n3)oc2c1 [Example 110] | 0.52 nM
48 | COc1cc(OCc2cccc(NC(=O)c3ccc(F)c(C(F)(F)F)c3)c2)c2cc(-c3cn4nc(OC)sc4n3)oc2c1 [Example 30] | 1.8 nM
49 | COc1cc(OCc2cccc(NC(=O)NCc3ccccc3)c2)c2cc(-c3cn4nc(OC)sc4n3)oc2c1 [Example 38] | 4.8 nM
50 | COc1cc(OCc2cccc(NC(=O)C3CCCC3)c2)c2cc(-c3cn4nc(OC)sc4n3)oc2c1 [Example 145] | 6.8 nM
51 | COc1cc(OCc2cccc(N(C)C(C)=O)c2)c2cc(-c3cn4nc(OC)sc4n3)oc2c1 [Example 94] | 3.8 nM
